Results from ChEMBL document CHEMBL1201862, “PubChem BioAssay data set” (2004).
Calls of active or inactive are those of the source. For most assays here, no stated cut-off is given here; in the data, actives have a measured EC50 and inactives only a lower limit.

Assays:
[1] = biological target: T1, Heat shock factor protein 1 (Mus musculus, UniProt P38532); assay: enhancement of HSF1-driven luciferase signal – cell-based, NIH3T3, luminescence, dose retest, confirmation (AID 435004); type: functional;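 further: stress induced by proteasome inhibitor MG132 added 30 min after compound; luciferase reporter driven by HSF1 response element in NIH3T3 cells; actives raise luminescence as potentiators of the MG132 stress response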
T1 sequence (P38532 whole entry): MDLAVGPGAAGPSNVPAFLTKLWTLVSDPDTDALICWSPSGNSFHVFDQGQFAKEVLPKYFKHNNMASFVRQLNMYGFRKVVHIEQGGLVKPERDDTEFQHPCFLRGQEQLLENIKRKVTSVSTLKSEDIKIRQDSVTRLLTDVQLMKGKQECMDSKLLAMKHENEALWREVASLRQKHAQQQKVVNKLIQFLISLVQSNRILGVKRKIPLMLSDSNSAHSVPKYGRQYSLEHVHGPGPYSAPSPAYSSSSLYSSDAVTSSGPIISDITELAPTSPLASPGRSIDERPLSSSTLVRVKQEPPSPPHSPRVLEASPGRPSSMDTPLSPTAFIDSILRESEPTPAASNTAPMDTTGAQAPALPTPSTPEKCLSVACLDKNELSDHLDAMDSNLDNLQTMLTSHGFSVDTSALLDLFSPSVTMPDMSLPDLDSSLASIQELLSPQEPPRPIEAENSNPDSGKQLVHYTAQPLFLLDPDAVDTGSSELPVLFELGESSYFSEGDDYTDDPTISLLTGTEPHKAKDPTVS

[2] = biological target: T1, Heat shock factor protein 1; assay: decrease of HSF1-responsive luciferase luminescence – cell-based, NIH3T3, dose retest, confirmation (AID 2382); type: functional;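 further: NIH3T3 fibroblasts with HSF1-driven luciferase reporter stressed by proteasome inhibitor MG132; luminescence from HSF1-driven luciferase expression after 8 hours of MG132 stress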
[3] = biological target: T2, Corticotropin-releasing factor receptor 2/Corticotropin-releasing factor-binding protein (Homo sapiens, UniProt P24387+Q13324); assay: activators of CRF receptor 2 with binding protein – uHTS hits, confirmation (AID 602473); type: functional; conditions: read-out: EC50_Mean
T2 sequence (Q13324 whole entry): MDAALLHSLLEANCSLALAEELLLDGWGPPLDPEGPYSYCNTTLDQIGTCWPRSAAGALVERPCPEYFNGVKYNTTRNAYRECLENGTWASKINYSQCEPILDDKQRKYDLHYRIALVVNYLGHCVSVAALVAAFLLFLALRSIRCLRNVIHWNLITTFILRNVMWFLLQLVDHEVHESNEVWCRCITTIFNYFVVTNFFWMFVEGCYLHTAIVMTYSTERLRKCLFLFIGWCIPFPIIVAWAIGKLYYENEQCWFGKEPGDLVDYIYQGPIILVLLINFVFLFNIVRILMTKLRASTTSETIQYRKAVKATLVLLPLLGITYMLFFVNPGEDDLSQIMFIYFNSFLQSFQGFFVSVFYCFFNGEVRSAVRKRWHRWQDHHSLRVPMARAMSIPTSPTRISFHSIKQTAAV
T2 sequence (P24387 whole entry): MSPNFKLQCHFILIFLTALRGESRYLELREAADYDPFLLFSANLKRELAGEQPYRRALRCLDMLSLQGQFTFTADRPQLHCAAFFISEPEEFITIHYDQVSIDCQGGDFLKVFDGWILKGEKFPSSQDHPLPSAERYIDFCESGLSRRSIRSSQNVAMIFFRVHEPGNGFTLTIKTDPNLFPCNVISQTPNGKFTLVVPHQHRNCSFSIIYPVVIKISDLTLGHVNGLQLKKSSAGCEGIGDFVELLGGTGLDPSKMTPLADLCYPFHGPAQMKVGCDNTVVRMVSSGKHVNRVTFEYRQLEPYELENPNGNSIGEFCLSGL

[4] = biological target: T2, Corticotropin-releasing factor receptor 2/Corticotropin-releasing factor-binding protein; assay: Dose Response confirmation of uHTS hits for small molecule antagonists of the CRF-binding protein and CRF-R2 receptor complex.; type: functional; conditions: read-out: IC50_Mean
[5] = system: Streptococcus sp. 'group A'; assay: Streptococcus pyogenes SK(-)GAS viability under kanamycin – luminescence, BacTiterGlo, confirmation, counter-screen for streptokinase expression inhibitor project, dose response (AID 1900); type: functional, organism-based
Streptococcus = assay: GAS UMAA2166 growth inhibition – luminescence, BacTiterGlo, counter-screen for streptokinase expression inhibitor project, dose response (AID 1915); type: functional, organism-based;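 further: potency for reduction of bacterial viability or growth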
[6] = Luminescence Cell-Based Dose Response HTS to Identify Inhibitors of 5'UTR Stem-Loop Driven Prion Protein mRNA Translation in H4 Neuroglioblastoma Cells. [Related pubchem assays: 1827 (Project Summary), 1813 (Primary HTS)]; type: functional
[7] = alpha-synuclein stem-loop luciferase translation blockers – H4 neuroglioma cells, luminescence, confirmation (AID 1988); type: functional, cell-based
[8] = luciferase reporter signal suppression in cells – H4 neuroglioma cells, luminescence, dose response (AID 1990); type: functional, cell-based
[9] = viability of uninfected HEp-2 cells – cell-based, HTS, cytotoxicity control for RSV inhibitor project, dose response (AID 2410); type: functional; conditions: human respiratory syncytial virus
Cytochrome P450 2D6 = Cytochrome P450 2D6 (Homo sapiens, UniProt P10635);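 further: CYP2D6 member of a cytochrome P450 panel assay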
Chain of Cytochrome P450 2D6 (P10635 whole entry): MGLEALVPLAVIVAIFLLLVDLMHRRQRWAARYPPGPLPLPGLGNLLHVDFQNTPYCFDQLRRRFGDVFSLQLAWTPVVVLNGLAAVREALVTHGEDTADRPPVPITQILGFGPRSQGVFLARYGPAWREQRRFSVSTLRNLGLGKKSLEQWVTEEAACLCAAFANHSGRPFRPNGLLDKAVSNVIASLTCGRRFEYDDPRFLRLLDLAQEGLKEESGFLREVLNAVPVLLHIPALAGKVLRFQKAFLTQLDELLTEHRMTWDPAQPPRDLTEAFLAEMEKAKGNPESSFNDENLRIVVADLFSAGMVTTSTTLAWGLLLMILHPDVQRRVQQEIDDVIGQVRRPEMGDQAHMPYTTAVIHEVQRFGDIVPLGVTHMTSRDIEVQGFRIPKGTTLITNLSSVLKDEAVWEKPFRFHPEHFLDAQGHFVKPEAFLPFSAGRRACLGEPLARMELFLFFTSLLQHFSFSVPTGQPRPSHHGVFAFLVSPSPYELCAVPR

Cytochrome P450 2C9 = Cytochrome P450 2C9 (Homo sapiens, UniProt P11712)
Chain of Cytochrome P450 2C9 (P11712 whole entry): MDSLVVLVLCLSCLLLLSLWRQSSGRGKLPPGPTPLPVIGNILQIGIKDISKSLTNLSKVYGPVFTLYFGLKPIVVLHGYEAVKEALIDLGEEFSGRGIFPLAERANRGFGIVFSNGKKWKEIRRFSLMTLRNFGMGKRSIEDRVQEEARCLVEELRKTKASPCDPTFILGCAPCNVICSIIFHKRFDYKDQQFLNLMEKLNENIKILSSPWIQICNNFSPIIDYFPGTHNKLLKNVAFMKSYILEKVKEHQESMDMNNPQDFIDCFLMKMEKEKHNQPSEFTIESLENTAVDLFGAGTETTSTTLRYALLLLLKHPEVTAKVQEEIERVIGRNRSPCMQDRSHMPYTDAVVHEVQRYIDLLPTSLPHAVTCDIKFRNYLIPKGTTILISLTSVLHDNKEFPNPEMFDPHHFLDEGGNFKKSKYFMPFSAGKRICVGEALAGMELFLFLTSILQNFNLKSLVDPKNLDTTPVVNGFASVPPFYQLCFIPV

[10] = NIH3T3 cell viability loss – ATP luminescence, mouse fibroblasts, counter-screen, dose response (AID 2010); type: functional, cell-based;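 further: cells exposed to compound for about 90 hours before reading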
[11] = Trypanosoma cruzi growth suppression in host cells – NIH3T3 host cells, beta-gal luminescence, confirmation (AID 2044); type: functional, cell-based;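 further: intracellular parasites grown in NIH/3T3 mouse fibroblasts as host cells; luminescent beta-galactosidase reporter signal from transgenic T. cruzi replicating inside host cells; inhibitors lower the luminescence signal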

Cc1ccc(S(=O)(=O)NNC(=O)c2cnn(-c3ccc(Cl)cc3)c2C(F)(F)F)cc1
EC50 [1]: > 260 µM (inactive)

Cc1ccc2c(c1)N(C(=O)CCC(=O)N1CCC3(CC1)OCCO3)CCO2
EC50 [2]: > 195 µM (not active)

CCCCN1CN=C(S)N(c2ccc(C(=O)OCC)cc2)C1
EC50 [2]: > 195 µM (not active)

O=C(Nc1cccc2ccccc12)N1CC=CCC1
EC50 [3]: > 53 µM (inactive)
IC50 [4]: < 0.368 µM (active)

CO[C@H]1C=CO[C@@]2(C)Oc3c(C)c(O)c4c(O)c(c5c(nc6cc(C)ccn65)c4c3C2=O)NC(=O)C(C)=CC=C[C@H](C)[C@H](O)[C@@H](C)[C@@H](O)[C@@H](C)[C@H](OC(C)=O)[C@@H]1C
EC50 [5]: < 0.06 µM (active)
EC50 (Streptococcus): 0.071 µM (active)

Cc1cc(C)n(-c2nc3c(c(=O)[nH]c(=O)n3C)n2CC(O)COc2ccc(Cl)cc2Cl)n1 (configuration not stated)
EC50 [6]: 10.3 µM (active)
EC50 [7]: 9.24 µM (active)
EC50 [8]: 11.6 µM (active)

CN(CCC1CCCCO1)C(=O)CCc1nnc(CCCCc2ccccc2)o1 (configuration not stated)
EC50 [1]: 242 µM (active)

CCC1=C(OC(=O)N(CC)CC)N2C(=O)O/C(=N\CC3CC3)[C@]2(Cc2ccccc2)[C@H]2C1=CC[C@H]1C(=O)N(c3ccccc3)C(=O)[C@H]12
CC50 [9]: 36.7 µM (active)

CCn1c(CNC(C)=O)nnc1SCC(=O)c1ccc(Br)cc1
EC50 [1]: > 260 µM (inactive)

COc1ccccc1N1CCN(C2CCCN(C(=O)c3cc(C4CC4)on3)C2)CC1 (configuration not stated)
EC50 [3]: > 53 µM (inactive)
IC50 [4]: > 47.1 µM (inactive)

COc1ccc(N2CCN(C(=O)c3ccc(NS(=O)(=O)c4ccccc4)cc3)CC2)cc1
EC50 [2]: > 195 µM (not active)

Cc1c(Cl)c([N+](=O)[O-])nn1CC(=O)NC1CCCCC1
EC50 [3]: > 53 µM (inactive)
IC50 [4]: > 47.1 µM (inactive)

c1ccc(CCNc2nc3ccccc3n3nnnc23)cc1
EC50 [3]: > 53 µM (inactive)

CC(C)CNP(=S)(c1ccccc1)C(C)(C)C (configuration not stated)
EC50 [3]: > 53 µM (inactive)
IC50 [4]: > 47.1 µM (inactive)

COc1cc(Br)cc(/C=N/N(CCO)C2=NS(=O)(=O)c3ccccc32)c1OC
EC50 [6]: > 120 µM (not active)
EC50 [7]: 18.1 µM (active)
EC50 [8]: 18.5 µM (active)

CCC(N=C(S)NC1CCCCC1)c1ccccc1 (configuration not stated)
EC50 [2]: > 195 µM (not active)

Cc1cc(C)n(-c2ccc3nnc(C)n3n2)n1
CC50 [9]: 22 µM (active)

Cc1ccc(S(=O)(=O)CCN2CCN(c3ccccc3)CC2)cc1
EC50 [1]: > 260 µM (inactive)

Fc1cccc(F)c1-c1nc(-c2ccncc2)no1
CC50 [9]: 38 µM (active)

Cc1cccc(NC(S)=Nc2ccc(Cl)c(Cl)c2)c1
EC50 [5]: 11.5 µM (active)
EC50 (Streptococcus): > 150 µM (not active)

Cc1ccc(/C=C2/NC(=O)N(Cc3ccc(Br)cc3)C2=O)o1
EC50 [1]: > 260 µM (inactive)

O=C(N/N=C/C=C/c1ccccc1)c1[nH]nc2c1CCC2
EC50 [7]: 3.42 µM (active)
EC50 [8]: 10.6 µM (inconclusive)

CCN(C(=O)c1cc2c(O)nc3ccc(C)cc3c2s1)c1ccc(F)cc1
EC50 [2]: > 195 µM (not active)

O=S(=O)(N1CCCCC1)N1CCN(c2ccc(F)cc2)CC1
EC50 [2]: > 195 µM (not active)

COc1ccc2nc(NC(=O)C3CCCN(S(=O)(=O)c4cccc5nonc45)C3)sc2c1 (configuration not stated)
CC50 [9]: > 50 µM (active)

COc1ccc(C(=O)Nc2cc(C(F)(F)F)ccc2-n2cnc3ccccc32)cc1
EC50 [1]: > 260 µM (inactive)

COc1ccc(NC(=O)CN(C)S(=O)(=O)c2ccc(Br)s2)cc1OC
EC50 [1]: > 260 µM (inactive)

Cc1csc(NC(=O)Cc2ccccc2[N+](=O)[O-])n1
EC50 [3]: > 53 µM (inactive)

Cc1ccc(OCCOCCn2cnc3ccccc3c2=O)cc1C
CC50 [9]: 23.3 µM (active)

COc1ccc(CCN=C(NS(=O)(=O)c2ccc(Cl)cc2)c2ccccc2)cc1
EC50 [6]: > 120 µM (not active)
EC50 [7]: > 120 µM (not active)
EC50 [8]: > 120 µM (not active)

O=C(NCc1nnc2c3ccccc3c(-c3ccccc3)nn12)c1ccc(Cl)cc1
CC50 [9]: 7.36 µM (active)

O=C(Nc1ccccn1)c1cc(-c2cccc(Cl)c2)nc2ccccc12
EC50 [6]: > 120 µM (not active)
EC50 [7]: 15.3 µM (active)
EC50 [8]: > 120 µM (not active)

Cc1cccc(Nc2ncccc2C(=O)O)c1C [NIXYLIC ACID]
EC50 [2]: > 195 µM (not active)

Cc1ccc(C(=O)N2CCN(C(=O)CN3CCOCC3)C2)cc1
EC50 [3]: > 53 µM (inactive)
IC50 [4]: > 47.1 µM (inactive)

O=C(CCSc1ccc(Br)cc1)Nc1cccnc1
EC50 [3]: > 53 µM (inactive)
IC50 [4]: > 47.1 µM (inactive)

COc1ccc(NC(S)=Nc2ccc(C)c(S(=O)(=O)N3CCCCC3)c2)cc1
EC50 [2]: > 195 µM (not active)

O=C1CCN(C(=O)Nc2ccccc2Cl)N1
EC50 [1]: > 260 µM (inactive)

Cc1ccc(CN2CC(=O)N3[C@H]4c5cc(Cl)ccc5OC[C@@H]4[C@H](c4ccccc4)[C@]3(C)C2=O)cc1
EC50 [3]: > 53 µM (inactive)
IC50 [4]: > 47.1 µM (inactive)

Clc1ccc(CSc2nnc(-c3sccc3-n3cccc3)o2)cc1
AC50 (Cytochrome P450 2D6): 11.2 µM (inconclusive)
AC50 (Cytochrome P450 2C9): 14.1 µM (inconclusive)
EC50 [1]: > 260 µM (inactive)

COc1ccc(CC(=O)NC(=S)Nc2cccc(C)c2)cc1
EC50 [3]: 9.53 µM (active)

COc1ccc(C(=O)Nc2ccc(OCc3ccccc3)cc2)cc1[N+](=O)[O-]
EC50 [2]: 15.2 µM (active)

O=C(NCCc1cn[nH]c1)C1CCC(=O)N(CCc2cccc(F)c2)C1 (configuration not stated)
EC50 [3]: > 53 µM (inactive)
IC50 [4]: > 47.1 µM (inactive)

Cc1[nH]c2ccccc2c1SCc1nnc(SCc2ccccc2)n1C
EC50 [3]: > 53 µM (inactive)
IC50 [4]: > 47.1 µM (inactive)

Cc1ccc(S(=O)(=O)N/N=C\c2cn(-c3ccccc3)nc2-c2ccccc2)cc1
CC50 [9]: 13.2 µM (active)

NC(=O)CSc1nnc([C@@H](N)Cc2c[nH]c3ccccc23)o1
EC50 [2]: > 195 µM (not active)

CCOC(=O)c1c(-c2ccc(OC)cc2)csc1NC(=O)CNCc1ccco1
EC50 [3]: > 53 µM (inactive)
IC50 [4]: > 47.1 µM (inactive)

CCOc1cc(C)c(C(C)C)cc1S(=O)(=O)n1cnc(C)c1
EC50 [10]: 8.49 µM (active)
EC50 [11]: 1.53 µM (active)
EC50 [3]: > 53 µM (inactive)
